From patent US20130302282A1, “Inhibitors of Hepatitis C Virus” (priority 2010, published 2013)
Read-outs that look alike come from different tables or passages of the source.

Test system: 1b_Huh-Luc/Neo-ET cell line (bicistronic genotype 1b replicon in Huh 7 cells)
Assay: HCV 1b replicon assay, luciferase readout
Type: cell-based, HCV genotype 1b
Details: Hepatitis C virus
Protocol: Biological activity of the compounds of the invention was determined using an HCV replicon assay. The 1b_Huh-Luc/Neo-ET cell line persistently expressing a bicistronic genotype 1b replicon in Huh 7 cells was obtained from ReBLikon GMBH. This cell line was used to test compound inhibition using luciferase enzyme activity readout as a measurement of compound inhibition of replicon levels.
On Day 1 (the day after plating), each compound is added in triplicate to the cells. Plates incubated for 72 […] prior to running the luciferase assay. Enzyme activity was measured using a Bright-Glo Kit (cat. number E2620) manufactured by Promega Corporation. The following equation was used to generate a percent control value for each compound.
%Control=(Average Compound Value/Average Control)*100
The EC50 value was determined using GraphPad Prism and the following equation:
Y=Bottom+(Top−Bottom)/(1+10̂((LogIC50−X)*HillSlope))
EC50 values of compounds are repeated several times in the replicon assay.

[1] = Huh-7, class symbol, HCV genotype 1b replicon, read-out: Inhibition of HCV genotype 1b replicon
[2] = Huh-7, 1b_Huh-Luc/Neo-ET cell line, read-out: EC50, half-maximal inhibition of HCV 1b replication

Row | Structure (SMILES) | EC50 [1] | EC50 [2] | EC50 (Huh-7, read-out: Inhibition of HCV genotype 1b replicon, class symbol, HCV genotype 1b replicon)
1 | CNC(=O)c1c(-c2ccc(F)cc2)nn2cc3c(cc12)[C@@H](C)CCCN3S(C)(=O)=O (single isomer, unassigned) [Compound B51] | > 1000 nM |  | 
2 | CNC(=O)c1c(-c2ccc(F)cc2)nn2cc3c(cc12)[C@H](C)CCCN3S(C)(=O)=O (single isomer, unassigned) [Compound B52] | 100 to 1000 nM |  | 
3 | CNC(=O)c1c(-c2ccc(Oc3ccc(F)cc3)cc2)oc2cc3c(cc12)[C@@H](C)CCCN3S(C)(=O)=O (single isomer, unassigned) [Compound B86] | 100 to 1000 nM |  | 
4 | CNC(=O)c1c(-c2ccc(F)cc2)oc2cc3c(cc12)[C@H](C)N1CCC[C@@H]1CN3S(C)(=O)=O (single isomer, unassigned) [Compound B131] | < 10 nM | ≤ 10 nM | 
5 | CNC(=O)c1c(-c2ccc(F)cc2)oc2cc3c(cc12)[C@H]1C[C@H]1CCN3S(C)(=O)=O (single isomer, unassigned) [Compound B133] | > 1000 nM |  | 
6 | CNC(=O)c1c(-c2ccc(Oc3ccc(F)cc3)cc2)oc2cc3c(cc12)[C@@H](C)n1nncc1CN3S(C)(=O)=O (single isomer, unassigned) [Compound B164] | 10 to 100 nM | 10 to 100 nM | 
7 | CNC(=O)c1c(-c2ccc(F)cc2)oc2cc3c(cc12)[C@@H](C)n1nncc1CN3S(C)(=O)=O (single isomer, unassigned) [Compound B170] | 10 to 100 nM | 10 to 100 nM | 
8 | CNC(=O)c1c(-c2ccc(Oc3ccc(F)cc3)cc2)oc2cc3c(cc12)[C@@H](C)OC(C)(C)CN3S(C)(=O)=O (single isomer, unassigned) [Compound B177] | 100 to 1000 nM |  | 
9 | CNC(=O)c1c(-c2ccc(F)cc2)oc2cc3c(cc12)[C@@H](C)N(C)C(=O)CN3S(C)(=O)=O (single isomer, unassigned) [Compound B180] | 10 to 100 nM | 10 to 100 nM | 
10 | CNC(=O)c1c(-c2ccc(Oc3ccc(F)cc3)cc2)oc2cc3c(cc12)[C@H](C)N(C)C(=O)CN3S(C)(=O)=O (single isomer, unassigned) [Compound B181] | 10 to 100 nM | 10 to 100 nM | 
11 | CNC(=O)c1c(-c2ccc(Oc3ccc(F)cc3)cc2)oc2cc3c(cc12)[C@@H](C)N(C)C(=O)CN3S(C)(=O)=O (single isomer, unassigned) [Compound B182] | 100 to 1000 nM |  | 
12 | CNC(=O)c1c(-c2ccc(F)cc2)oc2cc3c(cc12)[C@@H](C)OC(C)(C)CN3S(C)(=O)=O (single isomer, unassigned) [Compound B185] | > 1000 nM |  | 
13 | CNC(=O)c1c(-c2ccc(Oc3ccc(F)cc3)cc2)oc2cc3c(cc12)[C@@H](C)OC1(CC1)CN3S(C)(=O)=O (single isomer, unassigned) [Compound B186] | 10 to 100 nM | 10 to 100 nM | 
14 | CNC(=O)c1c(-c2ccc(F)cc2)oc2cc3c(cc12)[C@@H](C)OC1(CC1)CN3S(C)(=O)=O (single isomer, unassigned) [Compound B194] | 100 to 1000 nM |  | 
15 | CNC(=O)c1c(-c2ccc(F)cc2)oc2cc3c(cc12)[C@H](C)c1ccccc1CN3S(C)(=O)=O (single isomer, unassigned) [Compound B203] | 10 to 100 nM | 10 to 100 nM | 
16 | CNC(=O)c1c(-c2ccc(F)cc2)oc2cc3c(cc12)[C@@H](C)c1ccccc1CN3S(C)(=O)=O (single isomer, unassigned) [Compound B204] | 10 to 100 nM | 10 to 100 nM | 
17 | CNC(=O)c1c(-c2ccc(F)cc2)oc2cc3c(cc12)[C@@H](C)NC(=O)CN3S(C)(=O)=O (single isomer, unassigned) [Compound B209] | 100 to 1000 nM |  | 
18 | CNC(=O)c1c(-c2ccc(Oc3ccc(F)c(F)c3)cc2)nn2cc3c(cc12)C(C)CCCN3S(C)(=O)=O (stereo not shown) [B97 (3)] |  |  | 10 to 100 nM
19 | CNC(=O)c1c(-c2ccc(F)cc2)oc2cc3c(cc12)C1(CCN3S(C)(=O)=O)CC1 [Compound B2] | 10 to 100 nM | 10 to 100 nM | 

Row | Structure (SMILES) | EC50 [1] | EC50 [2] | EC50 (Huh-7, read-out: Inhibition of HCV genotype 1b replicon, class symbol, HCV genotype 1b replicon)
20 | CNC(=O)c1c(-c2ccc(F)cc2)oc2cc3c(cc12)CCCCCCN3S(C)(=O)=O [Compound B19] | 10 to 100 nM | 10 to 100 nM | 
21 | CNC(=O)c1c(-c2ccc(F)cc2)oc2cc3c(cc12)CCCCCN3S(C)(=O)=O [Compound B20] | < 10 nM | ≤ 10 nM | 
22 | CNC(=O)c1c(-c2ccc(F)cc2)oc2cc3[nH]ccc3cc12 [Compound B25] | > 1000 nM |  | 
23 | CNC(=O)c1c(-c2ccc(F)cc2)nc2cc3c(cn12)C(C)=CCCO3 [Compound B30] | > 1000 nM |  | 
24 | C=C1CCCN(S(C)(=O)=O)c2cc3oc(-c4ccc(Oc5ccc(F)cc5)cc4)c(C(=O)NC)c3cc21 [Compound B46] | 100 to 1000 nM |  | 
25 | CNC(=O)c1c(-c2ccc(Oc3ccc(F)cc3)cc2)oc2cc3c(cc12)C(C)CCCN3S(C)(=O)=O (stereo not shown) [Compound B47] | 10 to 100 nM | 10 to 100 nM | 
26 | CNC(=O)c1c(-c2ccc(Oc3ccc(F)cc3)cc2)oc2cc3c(cc12)C(C)=CCCN3S(C)(=O)=O [Compound B48] | 10 to 100 nM | 10 to 100 nM | 
27 | CNC(=O)c1c(-c2ccc(F)cc2F)oc2cc3c(cc12)C(=O)CCCN3S(C)(=O)=O [Compound B49] | 100 to 1000 nM |  | 
28 | CNC(=O)c1c(-c2ccc(F)cc2)nn2cc3c(cc12)C(C)CCCN3S(C)(=O)=O (stereo not shown) [Compound B50] | 100 to 1000 nM |  | 
29 | CS(=O)(=O)N1CCCCc2cc3c(C#N)c(-c4ccc(F)cc4)oc3cc21 [Compound B53] | > 1000 nM |  | 
30 | C=CCN1CCN(S(C)(=O)=O)c2cc3oc(-c4ccc(F)cc4)c(C(=O)NC)c3cc2C1C (stereo not shown) [Compound B54] | 10 to 100 nM | 10 to 100 nM | 
31 | C=CCN1C(=O)CN(S(C)(=O)=O)c2cc3oc(-c4ccc(F)cc4)c(C(=O)NC)c3cc2C1C (stereo not shown) [Compound B55] | 10 to 100 nM | 10 to 100 nM | 
32 | CNC(=O)c1c(-c2ccc(F)cc2)nc2cc3c(cn12)C(C)CCCN3S(C)(=O)=O (stereo not shown) [Compound B56] | 100 to 1000 nM |  | 
33 | CNC(=O)c1c(-c2ccc(F)cc2)oc2cc3c(cc12)C(C)NCCN3S(C)(=O)=O (stereo not shown) [Compound B57] | 10 to 100 nM | 10 to 100 nM | 
34 | CS(=O)(=O)N1CCCCc2cc3c(-c4ncn[nH]4)c(-c4ccc(F)cc4)oc3cc21 [Compound B58] | 100 to 1000 nM |  | 
35 | CN(O)C(=O)c1c(-c2ccc(F)cc2)oc2cc3c(cc12)CCCCN3S(C)(=O)=O [Compound B59] | 100 to 1000 nM |  | 
36 | C=C1CCCN(S(C)(=O)=O)c2cc3oc(-c4ccc(F)cc4OC)c(C(=O)NC)c3cc21 [Compound B83] | > 1000 nM |  | 
37 | CNC(=O)c1c(-c2ccc(F)cc2OC)oc2cc3c(cc12)C(C)CCCN3S(C)(=O)=O (stereo not shown) [Compound B84] | 10 to 100 nM | 10 to 100 nM | 
38 | CNC(=O)c1c(-c2ccc(F)cc2)oc2cc3c(cc12)CCCCN3C(=O)OC [Compound B87] | 100 to 1000 nM |  | 

Row | Structure (SMILES) | EC50 [1] | EC50 [2] | EC50 (Huh-7, read-out: Inhibition of HCV genotype 1b replicon, class symbol, HCV genotype 1b replicon)
39 | CNC(=O)c1c(-c2ccc(F)cc2)oc2cc3c(cc12)C(O)CCCCN3S(C)(=O)=O (stereo not shown) [Compound B88] | 100 to 1000 nM |  | 
40 | CNC(=O)c1c(-c2ccc(Br)cc2)nn2cc3c(cc12)C(C)CCCN3S(C)(=O)=O (stereo not shown) [Compound B89] | 10 to 100 nM |  | 
41 | CNC(=O)c1c(-c2ccc(Oc3ccccc3)cc2)nn2cc3c(cc12)C(C)CCCN3S(C)(=O)=O (stereo not shown) [Compound B90] | 100 to 1000 nM |  | 
42 | CNC(=O)c1c(-c2ccc(Oc3ccccc3Cl)cc2)nn2cc3c(cc12)C(C)CCCN3S(C)(=O)=O (stereo not shown) [Compound B91] | 100 to 1000 nM |  | 
43 | CNC(=O)c1c(-c2ccc(F)cc2)oc2cc3c(cc12)CC(C)CCN3S(C)(=O)=O (stereo not shown) [Compound B92] | < 10 nM | ≤ 10 nM | 
44 | CNC(=O)c1c(-c2ccc(F)cc2)oc2cc3c(cc12)CCCCN3S(=O)(=O)C1CC1 [Compound B93] | 10 to 100 nM | 10 to 100 nM | 
45 | CNC(=O)c1c(-c2ccc(F)cc2)oc2cc3c(cc12)C(C)CCCCN3S(C)(=O)=O (stereo not shown) [Compound B94] | < 10 nM | ≤ 10 nM | 
46 | CNC(=O)c1c(-c2ccc(Oc3ccccc3F)cc2)nn2cc3c(cc12)C(C)CCCN3S(C)(=O)=O (stereo not shown) [Compound B95] | 100 to 1000 nM |  | 
47 | CNC(=O)c1c(-c2ccc(Oc3cccc(F)c3)cc2)nn2cc3c(cc12)C(C)CCCN3S(C)(=O)=O (stereo not shown) [Compound B96] | 10 to 100 nM |  | 
48 | CNC(=O)c1c(-c2ccc(F)cc2)oc2cc3c(cc12)C(C)N(CC(F)(F)F)CCN3S(C)(=O)=O (stereo not shown) [Compound B107] | < 10 nM | ≤ 10 nM | 
49 | CNC(=O)c1c(-c2ccc(F)cc2)oc2cc3c(cc12)C(O)C(C)(C)CCN3S(C)(=O)=O (stereo not shown) [Compound B123] | 10 to 100 nM | 10 to 100 nM | 
50 | CNC(=O)c1c(-c2ccc(F)cc2)oc2cc3c(cc12)C(C)N(C1CC1)CCN3S(C)(=O)=O (stereo not shown) [Compound B124] | 10 to 100 nM | 10 to 100 nM | 
51 | CNC(=O)c1c(-c2ccc(F)cc2)nn2cc3c(cc12)CCCCCN3S(C)(=O)=O [Compound B125] | 10 to 100 nM |  | 
52 | [2H]C([2H])([2H])NC(=O)c1c(-c2ccc(F)cc2)nn2cc3c(cc12)CCCCCN3S(C)(=O)=O [Compound B126] | 10 to 100 nM |  | 
53 | CNC(=O)c1c(-c2ccc(F)cc2)oc2cc3c(cc12)C1CC1CCN3S(C)(=O)=O (stereo not shown) [Compound B127] | < 10 nM | ≤ 10 nM | 
54 | [2H]C([2H])([2H])NC(=O)c1c(-c2ccc(F)cc2)oc2cc3c(cc12)C1CC1CCN3S(C)(=O)=O (stereo not shown) [Compound B128] | < 10 nM | ≤ 10 nM | 
55 | CS(=O)(=O)N1CCCCCc2cc3c(-c4ncc[nH]4)c(-c4ccc(F)cc4)nn3cc21 [Compound B129] | 10 to 100 nM |  | 
56 | CS(=O)(=O)N1CCCCCc2cc3c(-c4ncc[nH]4)c(-c4ccc(F)cc4)oc3cc21 [Compound B130] | < 10 nM | ≤ 10 nM | 
